Values quoted from earlier work in patent publication US12728131B2, “Compositions for the treatment of glaucoma and ocular hypertension” (Nicox S.A., priority 2020, dated 2026).
Where two headings read alike, the source gives them in different places.

Conditions: phase 2 dose-ranging VOYAGER study

Compound | reduction in mean diurnal IOP (0.024%) [mmHg] | reduction in mean diurnal IOP (0.005%) [mmHg]
O=C(CCC/C=C\C[C@@H]1[C@@H](CC[C@@H](O)CCc2ccccc2)[C@H](O)C[C@@H]1O)OCCCCO[N+](=O)[O-] [latanoprostene bunod] | 9.0 | 
CC(C)OC(=O)CCC/C=C\C[C@@H]1[C@@H](CC[C@@H](O)CCc2ccccc2)[C@H](O)C[C@@H]1O [latanoprost, propan-2-yl (Z)-7-[(1R,2R,3R,5S)-3,5-dihydroxy-2-[(3R)-3-hydroxy-5-phenylpentyl]cyclopentyl]hept-5-enoate] |  | 7.77
